The text below walks through data of US20260269287A1, “ALL-NONAQUEOUS MEMBRANE-FREE FLOW BATTERIES” (University of Cincinnati, priority 2023, published 2026).

Holding throughout (type): physicochemical
A short description of data set [1]: Solubility test in 1.5 M LiClO4/FEC. The note with it: average of repeated tests. On the procedure:
Solubility test. A solution of 1.5 M LiClO4/FEC was used for the solubility measurements. The solution was gradually added to a vial containing known amounts of the organic compounds used as the catholytes (Tri-TEMPO, C3-PTZ, and CP). Once a clear solution was obtained, the volume of the electrolyte was determined using an analytical pipette. The solubilities of the organic compounds were calculated from the ratio of the molar amount to the electrolyte volume. These steps were repeated twice, and the average values are presented.
Solubility test. A solution of 1.5 M LiClO4/FEC was used for the solubility measurements. The solution was gradually added to a vial containing known amounts of the organic compounds used as the catholytes (Tri-TEMPO, C3-PTZ, and CP). Once a clear solution was obtained, the volume of the electrolyte was determined using an analytical pipette. The solubilities of the organic compounds were calculated from the ratio of the molar amount to the electrolyte volume. These processes were repeated twice, and the average values are presented.
Solubility Test. A solution of FEC/LiClO4 (1.5 M) was used for the solubility measurements under an inert argon atmosphere at a temperature of 27° C. The solution was gradually added to a vial containing known amounts of the organic compounds used as the catholytes (Tri-TEMPO, C3-PTZ, and CP). Once a clear solution was obtained, the volume (50 μL) of the electrolyte was determined using an analytical pipette (P20). The solubilities of the organic compounds were calculated from the ratio of the molar amount to the electrolyte volume. These processes were repeated twice, and the average values are presented.

A short description of data set [2]: Crossover in the biphasic system under static conditions (UV-visible spectroscopy and CV). The settings on record: 15 days, 0.5 M redox material, FEC/BMP-TFSI biphasic system. On the procedure: (§1) To explore catholyte materials that meet these solubility requirements, eleven organic compounds were selected, and their solubilities in both phases of the NBS were tested. These materials included derivatives of phenothiazine, cyclopropenium, 2,2,6,6-tetramethylpiperidinyloxy (TEMPO), anthraquinone (AQ), and ferrocene (FIG. 9).
(§2) To explore catholyte materials that meet these solubility requirements, eleven organic compounds were selected, and their solubilities in both phases of the NBS were tested. These materials included derivatives of phenothiazine, cyclopropenium 2,2,6,6-tetramethylpiperidinyloxy (TEMPO), anthraquinone (AQ), and ferrocene (FIG. 33). […] The solubilities of Tri-TEMPO, C3-PTZ, and CP in 1.5 M FEC/LiClO4 were ~1.2 M, ~1 M, and 1.8 M, respectively.
(§3) To explore catholyte materials that meet these solubility requirements, eleven organic compounds were selected, and their solubilities in both phases of the NBS were tested. These materials included derivatives of phenothiazine, cyclopropenium, 2,2,6,6-tetramethylpiperidinyloxy (TEMPO), anthraquinone (AQ), and ferrocene (FIGS. 33 and 102). […] The solubilities of Tri-TEMPO, C3-PTZ, and CP in […] (1.5 M) were ~1.2 M, ~1 M, and 1.8 M, respectively.
Physiochemical Characterization. The UV-visible absorption spectra were recorded using a UV-visible spectrophotometer (Cary 8454 UV-Vis, Agilent Technologies). To perform UV-vis measurements, samples with concentrations below 5 mM were prepared. To achieve this, highly concentrated samples were diluted in an appropriate electrolyte solvent before conducting the UV-vis measurements. For the UV-vis calibration curve, stock solutions of Tri-TEMPO at concentrations of 0.3 M and 0.5 M were prepared in FEC/LiClO4 (1.5 M). These solutions were then further diluted to prepare solutions with concentrations of 1, 2, 3, 4, and 5 mM. In addition, a blank sample containing no redox materials was prepared to measure the UV-vis spectrum. The absorption intensity of the UV-vis spectra at different concentrations was used to construct the UV-vis calibration curve. […]

A short description of data set [3]: 1H NMR stability of C3-PTZ and CP at room temperature and 60° C. The note with it: over 10 days at 25° C. and 60° C., CD3CN. On the procedure:
The ^1H NMR spectra were recorded on a Bruker AV400 spectrometer (400 MHz). The chemical shifts were reported in ppm. To determine if CP or C3PTZ had crossed through the biphasic layer, we extracted […] samples from anolyte before and after subjecting the system to extended charge/discharge cycles (~100 cycles). These […] samples were subjected to 1H NMR analysis by combining them with […] of CD3CN, resulting in a total NMR solvent volume of […]. In addition, we followed specific sample preparation procedures to assess the stability of CP and C3-PTZ using ^1H NMR. Approximately 5 mg of either solid CP or C3-PTZ was mixed with […] of CD3CN to create NMR samples. Two NMR samples were prepared for each compound in NMR tubes equipped with J. Young air-inlet valves. Firstly, we recorded ^1H NMR spectra for these NMR samples, after which we stored one NMR tube of each sample at room temperature while the other was placed at 60° C. Subsequently, we collected a series of ^1H NMR spectra at 24-h intervals for 10 days using these samples.

A short description of data set [4]: Cyclic voltammetry of redox-active cathode materials in 0.1 M LiClO4/FEC. The note with it: for reversible redox couple potential: 5 mM in 0.1 M LiClO4/FEC; for electrochemical stability on repeated CV cycling: in 0.1 M LiClO4/FEC, 1st vs 2000th cycle at 200 mV/s; for ratio of cathodic peak current (ipc) and anodic peak current (ipa): scan rates 50-200 mV/s. As to the method:
(§4) Electrochemical characterization. CV measurements were performed to evaluate the electrochemical properties of the redox-active materials (Tri-TEMPO, C3-PTZ, and CP) as well as the crossover of the redox-active materials before and after long-term battery cycling. For the CV measurements, 5 mM Tri-TEMPO, 5 mM C3-PTZ, and 5 mM CP solutions were prepared in 0.1 M LiClO4/FEC electrolyte. A 3-mm glassy carbon disk was used as the working electrode and was polished with 5-nm Al2O3 before the measurements. A piece of Pt wire (0.5 mm) was used as the counter electrode while a Ag/Ag^+ electrode was used as the reference electrode.
as §4, with “characterizations.” for “characterization.”, “mM of” for “mM”, “Tri-TEMPO,” for “Tri-TEMPO, 5 mM”, “and” for “and 5 mM”, “FEC/LiClO4” for “LiClO4/FEC”, “5 nm” for “5-nm”
Electrochemical Characterizations. For the CV measurements, 5 mM of Tri-TEMPO, C3-PTZ, and CP solutions were prepared in FEC/LiClO4 (0.1 M) electrolyte. A glassy carbon disk (CHI Instrument, 3 mm) was used as the working electrode and was polished with Al2O3(Pine Research Instrumentation, Inc., […]) before the measurements, where water was used as the solvent to polish the electrode. A piece of Pt wire (Pine Research Instrumentation, Inc., thickness 0.5 mm, purity 99.99%) was used as the counter electrode while an Ag/Ag+ (Fisher Scientific) electrode was used as the reference electrode. The CV measurements were performed using a Bio-Logic potentiostat. Electrochemical impedance spectroscopy (EIS) was performed using a potentiostatic signal spanning from 200 KHz to 100 mHz, with an amplitude of 10 mV. The measurements were conducted under open-circuit voltage (OCV) conditions for a total of 54 data points. The charge/discharge performances were evaluated using Land and Bio-Logic potentiostats.

Data set [5] in a line: Screening of cathode materials: solubilities in both phases of the FEC/BMP-TFSI nonaqueous biphasic system. The note with it: for solubility in FEC (catholyte): FEC / cathode electrolyte FEC/LiClO4; for affinity towards the anolyte: anode electrolyte BMP-TFSI/LiTFSI. As to the method: as §1, §2, §3
The nature of data set [6]: 1H and 19F NMR determination of LiTFSI concentration in the TEGDME and NFTTS layers. The settings on record: TEGDME/NFTTS biphasic system after salt-out. As to the method:
Physicochemical characterizations. The UV-visible absorption spectra were collected on a UV-visible spectrophotometer (Agilent Technologies, Cary 8454 UV-Vis). To perform UV-visible measurements, dilute samples with concentrations below 5 mM were prepared. To achieve this, highly concentrated samples were diluted in an appropriate electrolyte solvent before conducting the UV-visible measurements. A blank sample containing no redox materials was prepared to measure the UV-visible spectrum. The ^1H and ^19F NMR spectra were recorded on a Bruker AV400 spectrometer (400 MHz). The chemical shifts were reported in ppm. To measure the concentration of LiTFSI in TEGDME and NFTTS layers of the biphasic system, a sample of 10 μL volume was collected from each layer and mixed with 400 μL of CDCl3 for preparing the NMR samples. ^1H NMR spectra were first recorded using these samples, and 50 μL of TBAPF6, as an internal standard, was then added to those samples before performing ^19F NMR.
For Design-I, because the gravimetric densities of the solvents followed the sequence TEGDME<NFTTS<FEC, TEGDME was used as the anolyte for the top layer, NFTTS as the ion-exchange layer in the middle, and FEC as the catholyte in the bottom layer. […] This property poses a challenge in constructing a stable triphasic system with the desired immiscibility between the layers. […]

“Also recorded” adds a separate entry of the source.

As for `CCCN1c2ccccc2Sc2ccccc21` [C3-PTZ, N-propyl phenothiazine], the solubility (as a rule, the concentration that dissolves in the medium under given conditions) in data set [1] is listed as ~ 1 M. The “crossover from catholyte to anolyte” value in data set [2] is recorded as “Negligible crossover”. In addition, the “thermostability by 1H NMR” value in data set [3] is recorded as “superior thermostability; also recorded: improved thermo-stability”. Besides, in data set [4], the “reversible redox couple potential” value is given as 0.33 V vs. Ag/Ag^+; the “electrochemical stability on repeated CV cycling” value (from here on “electrochemical stability”) is “high cycling stability”; the “ratio of cathodic peak current (ipc) and anodic peak current (ipa)” value (“ratio of cathodic peak current” below) is given as approximately 1. Besides, in data set [5], the “solubility in FEC (catholyte)” value was “high solubilities” and the “affinity towards the anolyte” value is given as “extremely poor affinity”.

In data set [1], `CCCCN(CC)c1c(N(CC)CCCC)[c+]1N(CC)CCCC.F[P-](F)(F)(F)(F)F` [CP, tris(dialkylamino)cyclo-propenium] registered a solubility of 1.8 M. In addition, the “crossover from catholyte to anolyte” value in data set [2] is on record as “Negligible crossover”. The “thermostability by 1H NMR” value in data set [3] is reported as “superior thermostability; also recorded: improved thermo-stability”. Further, in data set [4], the “reversible redox couple potential” value was 0.93 V vs. Ag/Ag^+; the “electrochemical stability” value is “high cycling stability”; the “ratio of cathodic peak current” value is reported as approximately 1. For the same compound, in data set [5], the “solubility in FEC (catholyte)” value is given as “high solubilities” and the “affinity towards the anolyte” value was “extremely poor affinity”.

Regarding `O=S(=O)([N-]S(=O)(=O)C(F)(F)F)C(F)(F)F.[Li+]` [LiTFSI, lithium bis(trifluoromethanesulfonyl)imide], in data set [6], the “concentration of LiTFSI in the NFTTS phase” value was determined as 0.14 M and the “concentration of LiTFSI in the TEGDME phase” value is reported as 1 M.

As for `CC1(C)CC(Nc2nc(NC3CC(C)(C)N(OC4CCCCC4)C(C)(C)C3)nc(NC3CC(C)(C)N(OC4CCCCC4)C(C)(C)C3)n2)CC(C)(C)N1OC1CCCCC1` [Tri-TEMPO, 2,4,6-tri-(1-cyclohex-yloxy-4-imino-2,2,6,6-tetramethylpiperidine)-1,3,5-triazine], the solubility in data set [1] is ~ 1.2 M. In addition, the “crossover from catholyte to anolyte” value in data set [2] is on record as “Negligible crossover”. Further, in data set [4], the “reversible redox couple potential” value was 0.37 V vs. Ag/Ag^+; the “electrochemical stability” value is “high cycling stability”; the “ratio of cathodic peak current” value is given as approximately 1. Further, in data set [5], the “solubility in FEC (catholyte)” value is “high solubilities” and the “affinity towards the anolyte” value was “extremely poor affinity”.
